{"source": "patent US7351389B2", "about": "“Aminocarboxylate ligands having substituted aromatic amide moieties” (Bracco International B.V., priority 1991, dated 2008)", "key": {"[1]": {"assay": "T1 relaxivity of gadolinium complexes (IBM Minispec spin analyzer)", "format": "physicochemical", "conditions": "Gd(L) complex, 20 MHz, 39±1° C.; for T1 Relaxivity: aqueous solutions, 0.1-5 mM Gd", "protocol": "The T1 relaxivity was measured for nine prior art gadolinium complexes (1-9) as compared to novel gadolinium complexes using the ligands of Examples 1, 2 and 3 (#10, 11 and 12, respectively, in the Table below). Relaxivity was measured on an IBM Minispec spin analyzer operating at 20 MHz and 39±1° C. Aqueous solutions were used in 0.1-5 mM Gd concentration range."}, "[2]": {"conditions": "chelating a paramagnetic ion, e.g., Gd; cited from earlier work"}, "[3]": {"conditions": "chelating a paramagnetic ion, e.g., Gd; cited from earlier work", "remark": "listed apart in the source"}}, "data": [{"compound": "10-[2-[[3,5-Bis[[(2-methylbutyl)amino]carbonyl]-phenyl]amino]2-oxoethyl]1,4,7,10-tetraazacyclododecane-1,4,7-triacetic acid, monogadolinium complex [AAA-DO3A]", "values": [{"measurement": "relaxivity (comparison in words of Table 1)", "setting": "[1]", "value": "especially high"}, {"measurement": "T1 Relaxivity", "setting": "[1]", "value": 5.9, "unit": "mM⁻¹ s⁻¹"}]}, {"compound": "O=C(O)CN1CCN(CC(=O)O)CCN(CC(=O)O)CCN(CC(=O)O)CC1", "note": "[DOTA, reference compound]", "values": [{"measurement": "T1 Relaxivity", "setting": "[1]", "value": 3.4, "unit": "mM⁻¹ s⁻¹"}]}, {"compound": "O=C(O)CN(CCN(CC(=O)O)C(=O)NCC(O)CO)CCN(CC(=O)O)C(=O)NCC(O)CO", "note": "(centres unmarked) (Gd complex, metal not drawn) [DTPA-HA, reference compound]", "values": [{"measurement": "T1 Relaxivity", "setting": "[1]", "value": 4.4, "unit": "mM⁻¹ s⁻¹"}]}, {"compound": "O=C(O)CN1CCN(CC(=O)O)CCN(CC(=O)Nc2ccccc2)CCN(CC(=O)O)CC1", "values": [{"measurement": "water solubility", "setting": "[2]", "value": "poor water solubility"}, {"measurement": "relaxivity", "setting": "[3]", "value": "acceptable relaxivity"}]}, {"compound": "O=C(O)CN1CCN(CC(=O)O)CCN(CC(=O)Nc2cc(C(=O)NC(CO)CO)cc(C(=O)NC(CO)CO)c2)CCN(CC(=O)O)CC1", "note": "[HAS-DO3A]", "values": [{"measurement": "relaxivity (comparison in words of Table 1)", "setting": "[1]", "value": "especially high"}, {"measurement": "T1 Relaxivity", "setting": "[1]", "value": 5.4, "unit": "mM⁻¹ s⁻¹"}]}, {"compound": "10-[2-[[3,5-Bis[[(2,3-dihydroxypropyl)amino]-carbonyl]phenyl]amino]-2-oxoethyl]-1,4,7,10-tetraazacyclododecane-1,4,7-triacetic acid, monogadolinium complex [HAA-DO3A]", "values": [{"measurement": "relaxivity (comparison in words of Table 1)", "setting": "[1]", "value": "especially high"}, {"measurement": "T1 Relaxivity", "setting": "[1]", "value": 5.8, "unit": "mM⁻¹ s⁻¹"}]}, {"compound": "O=C(O)CN(CCN(CC(=O)O)CC(=O)O)CCN(CC(=O)O)CC(=O)O", "note": "(Gd complex, metal not drawn) [DTPA, diethylenetriaminepentaacetic acid, reference compound]", "values": [{"measurement": "T1 Relaxivity", "setting": "[1]", "value": 3.7, "unit": "mM⁻¹ s⁻¹"}]}]}
